As a reminder, the half-life is the time in which the quantity being followed falls by half. The low end stands for fast loss, the high end for slow loss. By Kd is commonly meant the equilibrium constant for the complex coming apart. Low readings indicate tighter binding, high ones weaker binding. In general, IC50 refers to the concentration at which inhibition is half-maximal.

From ChEMBL document CHEMBL4052712, “Design and optimization of highly-selective, broad spectrum fungal CYP51 inhibitors” (Bioorg Med Chem Lett, 2017) come the findings set out here.

Data set [1] is described as follows: Half life in Swiss albino mouse plasma at 5 mg/kg, po measured during 0.5 to 48 hrs post dose by HPLC/MS/MS method. Type of data set: ADME, organism-based.
Data set [2] addresses T1, Lanosterol 14-alpha demethylase (Aspergillus, UniProt B8NUK6+G4WW85+Q9P8R0).
T1 sequence (B8NUK6 whole entry): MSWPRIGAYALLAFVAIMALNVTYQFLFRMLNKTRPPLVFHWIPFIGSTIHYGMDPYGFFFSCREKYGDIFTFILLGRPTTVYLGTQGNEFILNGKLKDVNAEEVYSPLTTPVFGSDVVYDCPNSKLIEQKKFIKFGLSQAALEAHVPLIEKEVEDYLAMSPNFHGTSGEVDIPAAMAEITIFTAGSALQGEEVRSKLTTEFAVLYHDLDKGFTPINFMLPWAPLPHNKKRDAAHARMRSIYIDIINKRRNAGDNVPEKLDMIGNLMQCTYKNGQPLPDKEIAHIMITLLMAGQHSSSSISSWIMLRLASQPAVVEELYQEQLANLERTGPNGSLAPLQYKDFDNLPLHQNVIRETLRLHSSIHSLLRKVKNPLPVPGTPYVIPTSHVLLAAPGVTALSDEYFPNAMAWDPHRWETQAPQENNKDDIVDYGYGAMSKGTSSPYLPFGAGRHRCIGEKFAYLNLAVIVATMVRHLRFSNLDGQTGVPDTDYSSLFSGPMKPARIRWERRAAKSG
T1 sequence (Q9P8R0 whole entry): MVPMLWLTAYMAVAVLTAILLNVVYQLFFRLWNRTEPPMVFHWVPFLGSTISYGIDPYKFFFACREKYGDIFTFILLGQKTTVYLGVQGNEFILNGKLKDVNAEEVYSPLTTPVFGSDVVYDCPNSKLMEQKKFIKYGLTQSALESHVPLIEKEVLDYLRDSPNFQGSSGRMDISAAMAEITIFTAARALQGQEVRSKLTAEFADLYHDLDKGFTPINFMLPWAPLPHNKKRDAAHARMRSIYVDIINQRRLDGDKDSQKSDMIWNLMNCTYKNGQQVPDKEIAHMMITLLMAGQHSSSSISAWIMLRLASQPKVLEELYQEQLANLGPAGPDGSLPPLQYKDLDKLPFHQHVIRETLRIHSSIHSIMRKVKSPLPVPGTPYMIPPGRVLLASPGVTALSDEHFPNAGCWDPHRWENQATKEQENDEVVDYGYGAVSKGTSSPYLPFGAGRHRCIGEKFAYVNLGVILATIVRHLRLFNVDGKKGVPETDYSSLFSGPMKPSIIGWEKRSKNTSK
T1 sequence (G4WW85 whole entry): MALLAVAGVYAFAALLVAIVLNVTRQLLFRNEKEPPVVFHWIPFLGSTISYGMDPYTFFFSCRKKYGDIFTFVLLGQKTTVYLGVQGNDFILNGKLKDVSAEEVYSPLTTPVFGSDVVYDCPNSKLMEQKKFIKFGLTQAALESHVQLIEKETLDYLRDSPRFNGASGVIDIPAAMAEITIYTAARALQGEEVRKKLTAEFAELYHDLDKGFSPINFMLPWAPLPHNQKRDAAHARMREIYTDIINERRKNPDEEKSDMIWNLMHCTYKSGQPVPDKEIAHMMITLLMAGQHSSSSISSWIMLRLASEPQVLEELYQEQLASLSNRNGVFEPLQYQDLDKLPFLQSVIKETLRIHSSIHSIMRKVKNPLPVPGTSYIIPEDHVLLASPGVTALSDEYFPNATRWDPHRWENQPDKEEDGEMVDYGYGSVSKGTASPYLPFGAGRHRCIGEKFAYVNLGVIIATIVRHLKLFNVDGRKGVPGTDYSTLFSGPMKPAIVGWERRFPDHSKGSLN
The experiment in a line: Binding affinity to Aspergillus fumigatus CYP51.

The target of the next data set is Cytochrome P450 3A4 (Homo sapiens, UniProt P08684). The experiment in a line: Inhibition of CYP3A4 in human hepatocyte microsomes using testosterone substrate by HPLC/MS/MS method. It counts as ADME.
For data set [3], the target named is T2, Cytochrome P450 11B2, mitochondrial (Homo sapiens, UniProt P19099).
T2 sequence (P19099 whole entry): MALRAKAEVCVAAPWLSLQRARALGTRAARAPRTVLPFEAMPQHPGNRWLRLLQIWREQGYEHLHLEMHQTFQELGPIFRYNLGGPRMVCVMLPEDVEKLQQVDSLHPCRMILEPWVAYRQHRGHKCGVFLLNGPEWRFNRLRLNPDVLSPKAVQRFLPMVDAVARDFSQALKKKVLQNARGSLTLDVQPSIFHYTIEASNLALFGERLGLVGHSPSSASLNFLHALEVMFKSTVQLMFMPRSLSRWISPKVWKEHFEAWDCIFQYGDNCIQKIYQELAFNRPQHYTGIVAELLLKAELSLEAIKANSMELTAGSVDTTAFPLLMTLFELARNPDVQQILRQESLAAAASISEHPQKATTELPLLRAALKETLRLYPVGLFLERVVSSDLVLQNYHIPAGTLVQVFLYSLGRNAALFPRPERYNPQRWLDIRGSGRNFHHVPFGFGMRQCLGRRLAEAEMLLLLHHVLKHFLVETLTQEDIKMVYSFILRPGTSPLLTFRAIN
The experiment in a line: Inhibition of CYP11B2 in human hepatocyte microsomes using deoxycorticosteroid substrate by HPLC/MS/MS method. Type of data set: ADME.

Cytochrome P450 3A4, sequence (P08684 whole entry): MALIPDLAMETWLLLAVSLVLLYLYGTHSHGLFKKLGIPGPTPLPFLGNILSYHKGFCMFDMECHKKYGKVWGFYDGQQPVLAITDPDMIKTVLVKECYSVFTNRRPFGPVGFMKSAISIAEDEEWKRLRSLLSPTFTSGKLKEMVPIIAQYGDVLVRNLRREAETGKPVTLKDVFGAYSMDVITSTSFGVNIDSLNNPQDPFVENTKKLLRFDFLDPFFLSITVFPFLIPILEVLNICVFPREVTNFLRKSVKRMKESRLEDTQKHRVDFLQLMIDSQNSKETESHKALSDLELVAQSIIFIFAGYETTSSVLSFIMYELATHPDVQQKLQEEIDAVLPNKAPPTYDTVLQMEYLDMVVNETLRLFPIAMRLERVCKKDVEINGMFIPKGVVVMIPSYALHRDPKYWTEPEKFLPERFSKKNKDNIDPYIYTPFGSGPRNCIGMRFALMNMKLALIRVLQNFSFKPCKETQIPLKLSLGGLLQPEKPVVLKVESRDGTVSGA

The compound `N#Cc1ccc(COc2ccc(C#Cc3ccc(C(F)(F)C(O)(Cn4cnnn4)c4ccc(F)cc4F)nc3)cc2)cc1` (single isomer, unassigned; (+)) showed a half-life in data set [1] of 24 h. The compound further yielded a dissociation constant (Kd) in data set [2] of 0.013 µM. The values for the IC50 (against Cytochrome P450 3A4; in data set [3]) were above 200 µM and above 100 µM, respectively.
